Laboratory results as given in US6812245B2, “Polycylic xanthones and their use” (Instituto Biomar S.A., priority 2000, dated 2004).
Converted amounts (≈) assume the structure as drawn.

Legend:
Format in all cases: cell-based
[1] = tested on: human colon carcinoma HT-29; assay: in vitro antitumour activity in cell cultures, human colon carcinoma HT-29; details: human colon carcinoma HT-29 cell culture
Procedure: (§1) The antitumour activities of IB-00208 have been determined in vitro in cell cultures of mouse leukaemia P-388, human lung carcinoma A-549, human colon carcinoma HT-29 and human melanoma MEL-28. The procedure was carried out using the methodology described by Bergeron et al. The IC50 found was of 0.001, 0.001, 0.001, and 0.001 μg/ml for all 4 cell lines.

[2] = tested on: mouse leukaemia P-388; assay: in vitro antitumour activity in cell cultures, mouse leukaemia P-388; details: P388; mouse leukaemia P-388 cell culture
Procedure: as §1

[3] = tested on: human melanoma MEL-28; assay: in vitro antitumour activity in cell cultures, human melanoma MEL-28; details: SK-MEL-28; human melanoma MEL-28 cell culture
Procedure: as §1

[4] = tested on: human lung carcinoma A-549; assay: in vitro antitumour activity in cell cultures, human lung carcinoma A-549; details: A549; human lung carcinoma A-549 cell culture
Procedure: as §1

IC50 [1]: 1 ng/mL (≈ 1.45 nM) | IC50 [2]: 1 ng/mL (≈ 1.45 nM) | IC50 [3]: 1 ng/mL (≈ 1.45 nM) | IC50 [4]: 1 ng/mL (≈ 1.45 nM)
Compound: COc1ccc(OC)c2c(=O)c3c(oc12)C(=O)c1ccc2c(OC4OC(C)C(OC)C(OC)C4OC)c4c(c(O)c2c1C3=O)C(=O)OC(C)C4 (stereo not shown) [IB-00208]
